Data as given in paper PMC11432405, “Development of Novel Alaninamide Derivatives with Anticonvulsant Activity and Favorable Safety Profiles in Animal Models” (International Journal of Molecular Sciences, 2024).
Where two headings read alike, the source gives them in different places.

How the values were obtained:
[1] = tested on: 6 Hz (44 mA) seizures; conditions: cited from earlier work; for PI (TD50/ED50) 6 Hz (44 mA): TD50 rotarod / ED50 6 Hz (44 mA)
[2] = tested on: 6 Hz (32 mA) seizures; conditions: cited from earlier work; for PI (TD50/ED50) 6 Hz: TD50 rotarod / ED50 6 Hz (32 mA)
[3] = tested on: motor coordination; conditions: cited from earlier work
[4] = tested on: maximal electroshock (MES) seizures; conditions: cited from earlier work; for PI (TD50/ED50) MES: TD50 rotarod / ED50 MES
[5] = tested on: 6 Hz (32 mA) seizures; assay: 6 Hz (32 mA) psychomotor seizure model; conditions: for PI (TD50/ED50) 6 Hz: TD50 rotarod / ED50 6 Hz (32 mA); for protection (efficacy) in the 6 Hz (32 mA) screening / ED50 6 Hz (32 mA) / 6 Hz (32 mA) test: number of mice protected / number of mice tested: mice i.p.; for protection (efficacy) in the 6 Hz (32 mA) screening: 100 mg/kg, four mice; for protection (efficacy) in the 6 Hz (32 mA) screening / ED50 / responders at 100 mg/kg: 0.5 h; for ED50 6 Hz (32 mA): TPE 0.5 h, 95% confidence interval in parentheses; for 6 Hz (32 mA) test: number of mice protected / number of mice tested: dose of 100 mg/kg, pretreatment time 0.5 h; for ED50 / responders at 100 mg/kg: Mus musculus, ip; for ED50: read-out: ED50 6 Hz (32 mA), mice i.p., TPE 0.5 h, 95% confidence interval in parentheses; for responders at 100 mg/kg: read-out: protection (efficacy) in the 6 Hz (32 mA) screening;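 on all read-outs here: adult male albino Swiss CD-1 mice, each used once, with compounds suspended in 1% Tween 80 in water as vehicle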
[6] = tested on: motor coordination; assay: rotarod test (acute neurological toxicity, motor coordination); format: in vivo; conditions: mice i.p., 0.5 h
Protocol: (§1) The protective indexes (PIs) were then calculated as the ratio of TD50 to ED50 (PI = TD50/ED50), providing an assessment of the therapeutic window for each compound.

[7] = tested on: maximal electroshock (MES) seizures; assay: maximal electroshock seizure (MES) test; format: in vivo, mice; conditions: for PI (TD50/ED50) MES: TD50 rotarod / ED50 MES; for protection (efficacy) in the MES screening: 100 mg/kg, 0.5 h, four mice; for MES test: number of mice protected / number of mice tested / responders at 100 mg/kg: dose of 100 mg/kg, pretreatment time 0.5 h; for ED50 / responders at 100 mg/kg: Mus musculus, ip; for responders at 100 mg/kg: read-out: MES test: number of mice protected / number of mice tested (converted)
Text: Epilepsy is a multifaceted disorder with often unclear etiology, making it challenging to pinpoint a specific receptor or transporter as the definitive target. Consequently, the discovery of ASMs deviates from the traditional drug development pathway, which typically involves designing a new molecule, docking it with a specific biological target, and performing chemical synthesis, followed by in vitro assays. Instead, numerous animal seizure models, which mirror various types of human epileptic seizures, are initially employed in the process of new ASM discovery. This approach has been instrumental in the identification and introduction into clinical practice of all currently used ASMs and continues to be a cornerstone in the preclinical development of new anticonvulsants. The primary justification for prioritizing in vivo screening over in vitro binding and functional studies is the complex and often not fully elucidated mechanisms of action of known ASMs. This approach also facilitates the discovery of compounds with novel, previously undefined pharmacodynamic properties. In light of this, we evaluated all compounds obtained in the current studies using the MES test, which remains one of the most valuable preclinical screening models for tonic-clonic seizures, as well as partial convulsions with or without secondary generalization in humans. This test allows for a comprehensive assessment of the anticonvulsant efficacy of new ASM candidates and is considered highly relevant for predicting their therapeutic efficacy in human epilepsy. The MES test was carried out in mice following the intraperitoneal (i.p.) administration of a screening dose of 100 mg/kg in a group consisting of four animals. The efficacy of the compounds synthesized was evaluated at 0.5 h pretreatment time.
Fresh solutions were prepared daily for each experimentation session.
Each group consisted of six animals.

[8] = target: T1, human recombinant MAO-B (Homo sapiens, UniProt P27338); assay: fluorometric monoamine oxidase B inhibition assay; format: biochemical; conditions: for % inhibition MAO-B (1 µM): mean of two independent experiments; for inhibition at 1 µM: read-out: % inhibition MAO-B (1 µM), mean of two independent experiments
T1 construct: purchased Sigma Aldrich
T1 sequence (P27338 1-520): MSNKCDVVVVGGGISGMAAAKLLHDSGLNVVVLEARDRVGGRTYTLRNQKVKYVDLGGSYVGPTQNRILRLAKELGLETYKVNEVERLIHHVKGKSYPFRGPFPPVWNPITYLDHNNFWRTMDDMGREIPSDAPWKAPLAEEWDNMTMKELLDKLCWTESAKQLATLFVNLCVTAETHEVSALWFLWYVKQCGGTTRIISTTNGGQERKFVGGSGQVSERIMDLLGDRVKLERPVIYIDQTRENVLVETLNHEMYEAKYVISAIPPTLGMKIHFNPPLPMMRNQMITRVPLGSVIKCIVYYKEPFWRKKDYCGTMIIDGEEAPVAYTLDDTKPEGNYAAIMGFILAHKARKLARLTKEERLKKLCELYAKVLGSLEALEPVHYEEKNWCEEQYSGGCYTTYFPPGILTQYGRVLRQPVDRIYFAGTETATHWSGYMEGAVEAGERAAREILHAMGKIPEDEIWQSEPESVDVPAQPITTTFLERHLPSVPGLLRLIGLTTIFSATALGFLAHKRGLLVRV

[9] = rotarod test (acute neurological toxicity, motor coordination); format: in vivo; conditions: male, CD-1 (albino Swiss), mouse, in vivo, ip, mice i.p.
Protocol: as §1

[10] = tested on: HepG2 cells; assay: hepatocytotoxicity MTT viability assay; format: cell-based, human; conditions: 50 µM, 24 h; cell line not specified in the sentence (Figures 2 and 3)
Protocol: To evaluate selected compounds’ hepatocytotoxicity and neurocytotoxicity, a human hepatocellular carcinoma cell line, HepG2 (ATCC® HB-8065™), and a human neuroblastoma cell line, SH-SY5Y (ATCC®, CRL-2266™), were used. Both cell lines were cultured in standard culture conditions (5% CO2, 37 °C, 95% humidity) using Dulbecco′s Modified Eagle′s—Medium (DMEM; Gibco, Thermo Scientific, Waltham, MA, USA) supplemented with 10% (vol/vol) fetal bovine serum (FBS; Gibco, Thermo Scientific, Waltham, MA, USA) and an antibiotic mixture (Penicillin, Streptomycin, Amphotericin B; Gibco, Thermo Scientific, Waltham, MA, USA). Cells were cultured with compounds 5, […], or 39 (1–50 µM) for 24 h and then an MTT (3-(4,5-dimethylthiazol-2-yl)-2,5diphenyltetrazolium bromide, Sigma-Aldrich, St. Louis, MO, USA) viability assay was performed. The formazan crystals were dissolved in DMSO (Sigma-Aldrich, St. Louis, MO, USA), and the absorbance at 570 nm was measured using a microplate reader (SpectraMax® iD3, Molecular Devices, San Jose, CA, USA). The experiment was performed three times in duplicate. Each bar represents the mean (±SEM) percentage of viable cells in comparison to the control (defined as 100% and represented by untreated cells).
Figure 2 The viability of HepG2 cells incubated in the presence of 5, 17, and 39. HepG2 cells were exposed to growing concentrations (1–50 µM) of tested compounds for 24 h. Cell viability was measured using an MTT assay. Bars represent mean percent of cell viability normalized to non-treated cells (100%) ± SEM. The doxorubicin was tested as a positive control.

[11] = mice i.p., TPE 0.5 h, 95% confidence interval in parentheses
[12] = mice i.p., TPE 0.5 h (LEV 1.0 h)

## C[C@H](C(=O)NCc1ccccc1)N1C(=O)CCC1=O [(R)-AS-1, (R)-N-Benzyl-2-(2,5-Dioxopyrrolidin-1-Yl)Propanamide]
[1]
  PI (TD50/ED50) 6 Hz (44 mA): >12.0
[2]
  PI (TD50/ED50) 6 Hz: > 32.0
[3]; mouse, in vivo, ip
  TD50 (rotarod test): >500 mg/kg
[4]
  PI (TD50/ED50) MES: > 7.5

## CC(C(=O)NCc1ccc(OCc2cccc(F)c2)cc1)N1C(=O)CCC1=O (centres unmarked) [Compound 7, 2-(2,5-dioxopyrrolidin-1-yl)-N-(4-((3-fluorobenzyl)oxy)benzyl)propanamide]
[5]
  PI (TD50/ED50) 6 Hz: > 4.2
  protection (efficacy) in the 6 Hz (32 mA) screening: 100%
  ED50 6 Hz (32 mA): 71.73 (66.6–77.23) mg/kg
  6 Hz (32 mA) test: number of mice protected / number of mice tested: 4/4
[6]
  TD50 (rotarod test): >300 mg/kg
[7]
  PI (TD50/ED50) MES: > 3.8
[7]; mice i.p.
  protection (efficacy) in the MES screening: ≤ 25%
  MES test: number of mice protected / number of mice tested: 1/4
[7]; [11]
  ED50 MES: 78.30 (65.82–93.13) mg/kg
[8]
  % inhibition MAO-B (1 µM): 0%

## CC(C(=O)NCc1ccc(OCc2ccccc2Cl)cc1)N1C(=O)CCC1=O (centres unmarked) [Compound 9, N-(4-((2-chlorobenzyl)oxy)benzyl)-2-(2,5-dioxopyrrolidin-1-yl)propanamide]
[5]
  PI (TD50/ED50) 6 Hz: > 5.2
  protection (efficacy) in the 6 Hz (32 mA) screening: 75%
  ED50 6 Hz (32 mA): 57.69 (33.98–97.94) mg/kg
  6 Hz (32 mA) test: number of mice protected / number of mice tested: 3/4
[6]
  TD50 (rotarod test): >300 mg/kg
[7]
  PI (TD50/ED50) MES: > 6.3
[7]; mice i.p.
  protection (efficacy) in the MES screening: 100%
  MES test: number of mice protected / number of mice tested: 4/4
[8]
  % inhibition MAO-B (1 µM): 0%

## CC(C(=O)NCc1ccc(OCc2cccc(C(F)(F)F)c2)cc1)N1CCCC1=O (centres unmarked) [Compound 38, 2-(2-oxopyrrolidin-1-yl)-N-(4-((3-(trifluoromethyl)benzyl)oxy)benzyl)propanamide]
[5]
  ED50: 65.3 mg/kg
  responders at 100 mg/kg: 75%
other
  melting point: 123.5 to 123.8 °C
[9]
  TD50 at 0.5 h: > 300 mg/kg
[7]; [11]
  ED50: 54.8 mg/kg
[7]; mice i.p.
  responders at 100 mg/kg: 100%
[8]
  inhibition at 1 µM: 2%

## CC(C(=O)NCc1ccc(OCc2ccc(OC(F)(F)F)cc2)cc1)N1CCCC1=O (centres unmarked) [Compound 39, 2-(2-oxopyrrolidin-1-yl)-N-(4-((4-(trifluoromethoxy)benzyl)oxy)benzyl)propanamide]
[5]
  ED50: 37.3 mg/kg
  responders at 100 mg/kg: 100%
  PI (TD50/ED50) 6 Hz: < 8.0
[10]
  cell viability at higher concentration (MTT): statistically significant decrease in cell viability
other
  melting point: 103.4 to 103.9 °C
[9]
  TD50 at 0.5 h: < 300 mg/kg
[7]; [11]
  ED50: 36.2 mg/kg
[7]; mice i.p.
  responders at 100 mg/kg: 100%
[7]
  PI (TD50/ED50) MES: < 8.3
[8]
  inhibition at 1 µM: 0%

## COC[C@@H](NC(C)=O)C(=O)NCc1ccccc1 [LCS, lacosamide]
[1]
  PI (TD50/ED50) 6 Hz (44 mA): 6.7
[1]; [12]
  ED50 6 Hz (44 mA): 6.9 (5.4–8.6) mg/kg
[2]
  PI (TD50/ED50) 6 Hz: 8.8
[2]; mouse, in vivo, ip
  ED50 6 Hz (32 mA): 5.3 (3.5–7.8) mg/kg
[4]
  PI (TD50/ED50) MES: 5.0
[4]; mice i.p., TPE 0.5 h (LEV 1.0 h), same conditions
  ED50 MES: 9.2 (8.5–10.0) mg/kg

## CC[C@@H](C(N)=O)N1CCCC1=O [LEV, levetiracetam]
[3]; mice i.p., Table 2
  TD50 (rotarod test): >500 mg/kg
[3]; mice i.p., Table 3
  TD50 (rotarod test): >500 mg/kg

## C[C@H](NCc1ccc(OCc2cccc(F)c2)cc1)C(N)=O [SAF, safinamide]
[4]; mice
  ED50 in the MES model: 4.1 mg/kg

## CCCC(CCC)C(=O)O [VPA, valproic acid]
[1]
  PI (TD50/ED50) 6 Hz (44 mA): 2.3
[2]
  PI (TD50/ED50) 6 Hz: 3.3
[2]; [12]
  ED50 6 Hz (32 mA): 130.6 (117.6–145.2) mg/kg
[4]
  PI (TD50/ED50) MES: 1.7
